Test results published in PubChem BioAssay AID248 (DTP/NCI, 2004).
“And” between values parts separate entries of the source, which are not always exact repeats. Equal values may be shown once. Inconclusive results and toxic doses are left out. Rule as the data show it: active = T/C of 150% or more; inactive = T/C below 125%.

System: L1210 leukemia ip in BDF1 mice, survival T/C
Experiment: NCI In Vivo Anticancer Drug Screen. Data for tumor model L1210 Leukemia (intraperitoneal) in B6D2F1 (BDF1) mice
Settings: endpoint: mean survival time, higher = longer survival
Outline: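 Ratio derived from survival: compound-dosed mice over vehicle-dosed mice, all bearing a transplantable tumor.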

[1] = dose: 100.0 mg/kg/injection, schedule: Q04DX003 (ip), vehicle: saline
[2] = dose: 200.0 mg/kg/injection, schedule: Q04DX003 (ip), vehicle: saline
[3] = dose: 400.0 mg/kg/injection, schedule: Q04DX003 (ip), vehicle: saline
[4] = dose: 10.0 mg/kg/injection, schedule: Q01DX001 (ip), vehicle: saline
[5] = dose: 20.0 mg/kg/injection, schedule: Q01DX001 (ip), vehicle: saline
[6] = dose: 40.0 mg/kg/injection, schedule: Q01DX001 (ip), vehicle: saline
[7] = dose: 100.0 mg/kg/injection, schedule: Q01DX001 (ip), vehicle: saline
[8] = dose: 200.0 mg/kg/injection, schedule: Q01DX001 (ip), vehicle: saline
[9] = dose: 25.0 mg/kg/injection, schedule: Q01DX009 (ip), vehicle: saline
[10] = dose: 50.0 mg/kg/injection, schedule: Q01DX009 (ip), vehicle: saline
[11] = dose: 100.0 mg/kg/injection, schedule: Q01DX009 (ip), vehicle: saline
[12] = dose: 100.0 mg/kg/injection, schedule: Q01DX009 (ip), vehicle: Klucel (hydroxypropylcellulose) (HPC)
[13] = dose: 200.0 mg/kg/injection, schedule: Q01DX009 (ip), vehicle: Klucel (hydroxypropylcellulose) (HPC)

Measured: T/C

O=C(O)c1ccc(C(=O)O)c([N+](=O)[O-])c1
inactive: [1] 102 % of control | [2] 100 % of control | [3] 96 % of control

CC(=O)N(C)N=O
inactive: [4] 115 % of control | [5] 115 % of control | dose: 30.0 mg/kg/injection, schedule: Q01DX001 (ip), vehicle: saline 115 % of control | [6] 114 % of control

CCC(C)c1nc2c([nH]1)c(=O)n(C)c(=O)n2C (stereo not drawn)
inactive: dose: 50.0 mg/kg/injection, schedule: Q01DX001 (ip), vehicle: saline 110 % of control | [7] 101 % of control | [8] 101 % of control | dose: 400.0 mg/kg/injection, schedule: Q01DX001 (ip), vehicle: saline 104 % of control

C=C[C@@](C)(O)CC/C=C(/C)CCC=C(C)C
inactive: dose: 6.0 mg/kg/injection, schedule: Q01DX009 (ip), vehicle: saline 112 % of control | dose: 12.0 mg/kg/injection, schedule: Q01DX009 (ip), vehicle: saline 100 % of control | [9] 101 % of control | [10] 106 % of control | [1] 97 % of control | [2] 96 % of control | [3] 102 % of control

CCCCCCCCCC(=O)c1ccccc1
inactive: dose: 100.0 mg/kg/injection, schedule: Q04DX002 (ip), vehicle: Klucel (hydroxypropylcellulose) (HPC) 96 % of control | dose: 200.0 mg/kg/injection, schedule: Q04DX002 (ip), vehicle: Klucel (hydroxypropylcellulose) (HPC) 103 % of control | dose: 400.0 mg/kg/injection, schedule: Q04DX002 (ip), vehicle: Klucel (hydroxypropylcellulose) (HPC) 100 % of control

CC1CCOC(C)O1 (stereo not drawn)
inactive: [11] 103 % of control | [1] 100 % of control | dose: 200.0 mg/kg/injection, schedule: Q01DX009 (ip), vehicle: saline 91 % of control | [2] 94 % of control | dose: 400.0 mg/kg/injection, schedule: Q01DX009 (ip), vehicle: saline 96 % of control | [3] 94 % of control

O=[N+]([O-])c1ccc(F)c(CNc2ncnc3c2ncn3C2CCCCO2)c1 (stereo not drawn)
inactive: [12] 100 % of control | [13] 106 % of control | dose: 400.0 mg/kg/injection, schedule: Q01DX009 (ip), vehicle: Klucel (hydroxypropylcellulose) (HPC) 100 % of control

CC1=CC2C(C3C=CC2(C)C(=O)C3(C)Cc2ccccc2)C(C)(Cc2ccccc2)C1=O (stereo not drawn)
inactive: dose: 50.0 mg/kg/injection, schedule: Q01DX009 (ip), vehicle: Klucel (hydroxypropylcellulose) (HPC) 94 % of control | dose: 75.0 mg/kg/injection, schedule: Q01DX001 (ip), vehicle: Klucel (hydroxypropylcellulose) (HPC) 100 % of control | [12] 96 % of control | dose: 150.0 mg/kg/injection, schedule: Q01DX001 (ip), vehicle: Klucel (hydroxypropylcellulose) (HPC) 99 % of control | [13] 93 % of control | dose: 300.0 mg/kg/injection, schedule: Q01DX001 (ip), vehicle: Klucel (hydroxypropylcellulose) (HPC) 96 % of control

O=S(=O)(O)C(O)c1ccc(Cl)cc1Cl (stereo not drawn)
inactive: [1] 102 % of control | [2] 102 % of control | [3] 107 % of control

COc1ccc(/C=C/C2=CC(=O)CC(c3ccc(OC)c(OC)c3)C2)cc1OC (stereo not drawn)
inactive: dose: 100.0 mg/kg/injection, schedule: Q04DX002 (ip), vehicle: saline with Tween-80 102 % of control | dose: 200.0 mg/kg/injection, schedule: Q04DX002 (ip), vehicle: saline with Tween-80 102 % of control | dose: 400.0 mg/kg/injection, schedule: Q04DX002 (ip), vehicle: saline with Tween-80 105 % of control

O=C(O)/C=C/C(=O)Nc1ccc2c(c1)Cc1cc(NC(=O)C(F)(F)F)ccc1-2
inactive: [9] 105 % of control | dose: 25.0 mg/kg/injection, schedule: Q04DX003 (ip), vehicle: saline 102 % of control | [10] 101 % of control | dose: 50.0 mg/kg/injection, schedule: Q04DX003 (ip), vehicle: saline 96 % of control | [7] 90 % of control | [11] 100 % of control | [1] 98 % of control | [8] 90 % of control

CCCCSC1=NCCCS1
inactive: dose: 75.0 mg/kg/injection, schedule: Q01DX001 (ip), vehicle: other 104 % of control | dose: 150.0 mg/kg/injection, schedule: Q01DX001 (ip), vehicle: other 111 % of control | dose: 300.0 mg/kg/injection, schedule: Q01DX001 (ip), vehicle: other 102 % of control

Cc1cc(=O)cc(S)[nH]1
inactive: dose: 100.0 mg/kg/injection, schedule: Q01DX001 (ip), vehicle: carboxymethylcellulose (CMC) 94 % of control | dose: 200.0 mg/kg/injection, schedule: Q01DX001 (ip), vehicle: carboxymethylcellulose (CMC) 100 % of control | dose: 400.0 mg/kg/injection, schedule: Q01DX001 (ip), vehicle: carboxymethylcellulose (CMC) 91 % of control

COc1cc([N+](=O)[O-])ccc1NC(=O)Nc1cc(C)ccn1
inactive: [12] 100 % of control | [13] 93 % of control

Cc1cccc(Nc2c(N)nc(N)nc2N)c1
inactive: [9] 105 % of control | [10] 120 % of control | [1] 104 % of control

CC1(C(N)=O)OCCO1
inactive: [1] 103 % of control | [2] 96 % of control | [3] 100 % of control

O=C(NC/C=C/Br)Nc1c2ccccc2nc2ccccc12
inactive: dose: 12.5 mg/kg/injection, schedule: Q01DX009 (ip), vehicle: saline 102 % of control | [9] 102 % of control | [10] 109 % of control

CCN(CC)C(=O)OC/C=C\CC(Cl)(Cl)Cl
inactive: dose: 50.0 mg/kg/injection, schedule: Q01DX009 (ip), vehicle: saline sonified 97 % of control | dose: 100.0 mg/kg/injection, schedule: Q01DX009 (ip), vehicle: saline sonified 111 % of control | dose: 100.0 mg/kg/injection, schedule: Q04DX003 (ip), vehicle: saline sonified 106 % of control | dose: 200.0 mg/kg/injection, schedule: Q01DX009 (ip), vehicle: saline sonified 94 % of control | dose: 200.0 mg/kg/injection, schedule: Q04DX003 (ip), vehicle: saline sonified 106 % of control | dose: 400.0 mg/kg/injection, schedule: Q04DX003 (ip), vehicle: saline sonified 106 % of control

N=c1ccn(CC(Cl)COc2ccccc2)cc1 (stereo not drawn)
inactive: dose: 5.0 mg/kg/injection, schedule: Q01DX001 (ip), vehicle: saline 103 % of control | [4] 105 % of control | [5] 105 % of control | [6] 100 % of control | dose: 80.0 mg/kg/injection, schedule: Q01DX001 (ip), vehicle: saline 105 % of control | [7] 101 % of control

Cc1cccc(OC(=O)Nc2ccc(C(=O)O)c(O)c2)c1
inactive: dose: 50.0 mg/kg/injection, schedule: Q04DX003 (ip), vehicle: gum acacia 96 % of control and 98 % of control | dose: 100.0 mg/kg/injection, schedule: Q01DX001 (ip), vehicle: gum acacia 104 % of control and 105 % of control | dose: 100.0 mg/kg/injection, schedule: Q01DX009 (ip), vehicle: gum acacia 97 % of control and 88 % of control | dose: 100.0 mg/kg/injection, schedule: Q04DX002 (ip), vehicle: gum acacia 94 % of control and 88 % of control | dose: 100.0 mg/kg/injection, schedule: Q04DX003 (ip), vehicle: gum acacia 101 % of control and 88 % of control | dose: 200.0 mg/kg/injection, schedule: Q01DX001 (ip), vehicle: gum acacia 100 % of control and 107 % of control | dose: 200.0 mg/kg/injection, schedule: Q01DX009 (ip), vehicle: gum acacia 98 % of control and 117 % of control | dose: 200.0 mg/kg/injection, schedule: Q04DX002 (ip), vehicle: gum acacia 95 % of control and 110 % of control | dose: 200.0 mg/kg/injection, schedule: Q04DX003 (ip), vehicle: gum acacia 98 % of control and 101 % of control
